Literature values, collected in article PMC2033546, “Effects of somatostatin analogue RC-160 and bombesin/gastrin-releasing peptide antagonists on the growth of human small-cell and non-small-cell lung carcinomas in nude mice” (British Journal of Cancer, 1994).

Tests used:
[1] = system: SCLC xenografts; details: nude mice; ref Alexander et al., 1988; cited from earlier work
Text: (§1) Br. J. Cancer (1994). 70, 886 892 ? Macmillan Press Ltd..

[2] = system: SCLC; details: in vitro; ref Carney et al., 1987; cited from earlier work
Text: as §1

[3] = system: EGF receptors; details: various cancer lines and cancer specimens; ref Liebow et al., 1992; cited from earlier work
Text: as §1

Bombesin
Effect on growth of SCLC xenografts (in words) [1]: stimulates
Effect on clonal growth of SCLC and DNA synthesis (in words) [2]: stimulates the clonal growth of SCLC and DNA synthesis in vitro
Effect on phosphorylation of EGF receptors (in words) [3]: enhance the phosphorylation of EGF receptors
